# Measured values: US11312950B2, “3D synthetic tissue hydrogels” (University of Massachusetts, priority 2017, dated 2022)
# Columns and labels:
# hMSCs [1] = assay: Competitive binding assay: adhesion of hMSCs pre-treated with soluble peptides to a surface with the bone marrow peptide cocktail; type: cell-based, human; conditions: 30 minutes pretreatment; glass surface with bone marrow integrin-binding peptide cocktail; three donor hMSCs and hTERT MSCs; 2 hours
# Description: Cells were seeded at 4000 cells per cm^2 in their normal growth medium after 30 minutes of pretreatment with individual peptides or the complete bone marrow cocktail. Bone marrow was dosed at a molar amount of […] of medium and the molar amount dosed for each peptide was as follows: GRGDSPCG (SEQ ID NO:8)at 600 pmol/mL, CGPHSRNGGGGGGRGDS (SEQ ID NO:14), and […] (SEQ ID NO:18) at 220 pmol/mL, CGP(GPP)5GFOGER(GPP)5 (SEQ ID NO:15), CGGSVVYGLR (SEQ ID NO:13), and GPRGGC (SEQ ID NO:2)at 160 pmol/mL, CSVTCG (SEQ ID NO:4) and […] (SEQ ID NO:5) at 100 pmol/mL, GCGDGEA (SEQ ID NO:1), CSRARKQAASIKVAVADR (SEQ ID NO:3), GCKQLREQ (SEQ ID NO:6), and CGGAEIDGIEL (SEQ ID NO:16) at 60 pmol/mL, and GCDPGYIGSR (SEQ ID NO:7) at 40 pmol/mL. Cells were imaged cells beginning 10 minutes after seeding in an environment controlled Zeiss Axio Observer Z1 microscope (Carl Zeiss) using an AxioCam MRm camera and an EC Plan-Neofluar 20× 0.4 NA air objective. Images were taken using Zen (Carl Zeiss) at five-minute intervals for 2 hours and cell areas were traced in ImageJ (National Institutes of Health).
# hMSCs [2] = assay: Outgrowth of hMSCs on beads in hydrogels made with a single MMP degradable crosslinker; type: cell-based, human; conditions: versus control, non-degradable crosslinker
# Description: (§1) Cytodex1 microcarrier beads (Sigma) were swollen in sterile IX PBS (1 g beads/50 mL PBS) and autoclaved for 30 minute at 121° C. Flasks were coated with poly (2-hydroxyethy methacrylate) suspended in ethanol at 20 mg/mL and allowed to evaporate in a biosafety cabinet for 1 hour to make they non-adherent. hMSCs were seeded at 10-50 cells/bead in non-adherent flasks at a 0.1 mL of beads/mL of media. The flask was shaken every 1 hour for 4 hours to ensure coating unto beads. Cells were allowed to grow on beads for 72 hours before seeding into hydrogels. Breast cancer cells were suspended in 4° C., poly(N-isopropylacryamide)-poly(ethylene glycol) (pNIPAAM-PEG, Cosmo Bio) reconstituted in cell culture medium at a density of 167,000 cells/mL of MDA-MB-231s. Gelation occurred after 5 min at 37° C., and gels were swollen in cell culture medium and grown into spheroids for 14 days. pNIPAAm gels were dissolved in cold serum-free DMEM (1% pen/strep) and spheroids transferred to conical tubes placed in ice so that spheroids would settle to the bottom. The supernatant was removed and the spheroids were re-suspended in PEG-maleimide solution. A ratio of 9 3D hydrogels were made for every 150 μL of pNIPAAM-PEG. Hydrogels were prepared with 4-arm PEG-maleimide at a 20 wt % cross-linked at a 1:1 molar ratio with 50% 1.5 K linear PEG-dithiol and 50% of each individual MMP degradable peptide sequence (FIGS. 13A-13C). Gels were imaged at days 1 and 3 and all image analysis was performed in ImageJ (National Institutes of Health).
# MDA-MB-231 cells = assay: MDA-MB-231 spheroid growth in hydrogels with one MMP degradable crosslinker; type: cell-based, human; conditions: spheroid size ratio
# Description: as §1, with “Gels were imaged at days 1 and 3 and all image analysis was performed in ImageJ (National Institutes of Health).” left out
# myofibroblasts = conditions: cited from earlier work
# chick arotic cells = conditions: cited from earlier work
Substance,cell adhesion (cell area) after pre-treatment with soluble peptide (hMSCs [1]),hMSC cell branching into hydrogel (maximum branch length per bead) (hMSCs [2]),degradation of crosslinked gel by MDA-MB-231 spheroids (MDA-MB-231 cells),ability of MMP peptide to degrade (myofibroblasts),ability of MMP peptide to degrade (chick arotic cells)
CGGAEIDGIEL [tenascin C],not significantly bound,–,–,–,–
CGP(GPP)5GFOGER(GPP)5 (CGPGPPGPPGPPGPPGPPGFGERGPPGPPGPPGPPGPP) [collagen I],not significantly bound,–,–,–,–
"GCRDGPLGLWARDRCG [MMP-13 crosslinker, di-functional MMP degradable crosslinker peptide designed for MMP 13 (Collagenase-3)]",–,No significant hMSC cell branching,degradation in the MMP-13 crosslinked gel was observed,–,–
"GCRDRPFSMIMGDRCG [MMP-3 crosslinker, di-functional MMP degradable crosslinker peptide designed for MMP 3 (Stromelysin-1)]",–,No significant hMSC cell branching,again not with the MMP 2 and 3 peptides,ability for these MMP peptides to degrade has been shown,–
"GCRDSGESPAYYTADRCG [MMP-2 crosslinker, di-functional MMP degradable crosslinker peptide designed for MMP 2 (Gelatinase A)]",–,No significant hMSC cell branching,again not with the MMP 2 and 3 peptides,–,ability for these MMP peptides to degrade has been shown
